Test results published in paper PMC4820706, “Discovery of a small-molecule binder of the oncoprotein gankyrin that modulates gankyrin activity in the cell” (Scientific Reports, 2016).

Experiments:
gankyrin [1] = target: T1, gankyrin (Homo sapiens, UniProt O75832); assay: ITC; format: binding
T1 construct: gene PSMD10; His-tagged full-length human gankyrin
T1 sequence (O75832 1-226): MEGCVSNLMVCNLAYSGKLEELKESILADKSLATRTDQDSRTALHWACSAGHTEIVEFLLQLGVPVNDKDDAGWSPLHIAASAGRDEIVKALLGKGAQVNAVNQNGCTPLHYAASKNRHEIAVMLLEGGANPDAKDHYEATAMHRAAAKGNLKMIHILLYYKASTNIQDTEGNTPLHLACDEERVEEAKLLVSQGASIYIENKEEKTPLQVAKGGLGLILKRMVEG

gankyrin [2] = target: T1, gankyrin; assay: ITC (Kd […], stoichiometry […]); also label-free MST (Kd […]), thermal shift, 1H-15N HSQC NMR; format: binding

SMILES	Kd (gankyrin [1])	Kd (gankyrin [2])
CCCNC(=O)c1ccc(-n2cc(CCCNS(=O)(=O)c3ccc(C)cc3)nn2)cc1 [compound 8]	~10 µM	–
COC(=O)c1ccc(-n2cc(CCCOS(=O)(=O)c3ccc(C)cc3)nn2)cc1 [cjoc42]	–	580 ± 70 nM
COC(=O)c1ccc(-n2cc(CNS(=O)(=O)c3ccc4ccccc4c3)nn2)cc1 [compound 12]	~56 µM	–
